Measured values reported in patent US11130780B2, “Inhibitors of growth factor activation enzymes” (Washington University, priority 2015, dated 2021).
Read-outs that look alike come from different tables or passages of the source.

Assays:
Type in all cases: biochemical
thrombin = thrombin (Homo sapiens, UniProt P00734); test: Chromogenic kinetic enzyme assay of thrombin
Method in brief: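 Recombinant human thrombin (0.15 nM) or Factor Xa (0.35 nM) was mixed with 11-point inhibitor dilutions (0–20 μM, 2% DMSO) in TNC buffer, pH 8. Kinetic absorbance at 405 nm gave velocities. IC50 came from a four-parameter fit and Ki from Cheng–Prusoff.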

Trypsin = Trypsin selectivity assay; conditions: Table 6.2; headed Fluorogenic Assay
Factor Xa = Factor Xa (Homo sapiens, UniProt P00742); test: Chromogenic kinetic enzyme assay of Factor Xa
Factor Xa, sequence (P00742 235-488 limits assumed): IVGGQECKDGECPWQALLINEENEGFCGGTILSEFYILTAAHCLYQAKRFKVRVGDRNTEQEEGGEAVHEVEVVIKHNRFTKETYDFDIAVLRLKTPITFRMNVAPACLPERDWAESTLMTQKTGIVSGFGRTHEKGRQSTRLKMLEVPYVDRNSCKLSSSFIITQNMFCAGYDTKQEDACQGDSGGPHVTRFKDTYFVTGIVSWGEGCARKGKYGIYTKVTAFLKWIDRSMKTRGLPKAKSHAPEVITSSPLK
Factor Xa, sequence (P00742 41-179 partner limits assumed): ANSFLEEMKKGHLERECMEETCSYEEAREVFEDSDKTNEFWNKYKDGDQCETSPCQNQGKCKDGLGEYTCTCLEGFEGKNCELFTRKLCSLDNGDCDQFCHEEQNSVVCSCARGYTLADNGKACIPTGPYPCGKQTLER
Procedure: Inhibitors (11-pt serial dilutions, 0-20 μM final concentration) were serially diluted in DMSO (2% DMSO final concentration) and then mixed with recombinant thrombin (0.15 nM final concentration) or Factor Xa (0.35 nM final concentration) in TNC buffer (25 mM Tris, 150 mM NaCl, 5 mM CaCl2, 0.01% TRITON X-100, pH 8) using clear 384 well plates. […] Changes in absorbance at 405 nm were measured over time in a Biotek Synergy 2 plate (Winnoski, Vt.). Using GraphPad Prism version 6.04 software program, (GraphPad Software, San Diego, Calif., www.graphpad.com), a four parameter curve fit was used to determine the inhibitor IC50s from a plot of the mean reaction velocity versus the inhibitor concentration. Ki values were calculated from the IC50 values using the Cheng and Prusoff equation (Ki=IC50/(1+[S]/Km).

HGFA [1] = biological target: T1, HGFA (Homo sapiens, UniProt Q04756); test: Fluorescent kinetic enzyme inhibitor assay of HGFA; conditions: for Ki: Table 6.1, Fluorogenic Assay, read-out: HGFA Ki
T1 construct: His6 tag (N); seven amino acid spacer and seven amino acid TEV cleavage site (N); Honey Bee melittin signal peptide (N); made in house; host or cells: High 5 insect cells (baculovirus; virus raised in Sf9)
T1 sequence (Q04756 373-655): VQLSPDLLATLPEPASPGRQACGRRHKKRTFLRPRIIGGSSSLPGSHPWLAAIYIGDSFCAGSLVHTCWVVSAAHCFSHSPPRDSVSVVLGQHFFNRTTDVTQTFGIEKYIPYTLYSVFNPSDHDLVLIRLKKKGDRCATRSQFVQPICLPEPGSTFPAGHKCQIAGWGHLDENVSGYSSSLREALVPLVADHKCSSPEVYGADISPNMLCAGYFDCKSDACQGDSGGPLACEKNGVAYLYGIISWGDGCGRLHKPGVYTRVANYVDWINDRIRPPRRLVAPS
Method in brief: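 Recombinant His-tagged HGFA residues 373-655 from insect cells, with substrate at Km. Inhibitors in 11-point dilutions, 0-20 μM final, 2% DMSO, fluorescence (ex 380/em 460 nm) followed over time at room temperature. IC50 from four-parameter fit of mean velocity, average of three experiments.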

matriptase = biological target: T2, matriptase (Homo sapiens, UniProt Q9Y5Y6); test: Fluorescent kinetic enzyme inhibitor assay of matriptase; conditions: Table 6.1; Fluorogenic Assay
T2 construct: Charles Craik, UCSF (obtained from another laboratory)
T2 sequence (Q9Y5Y6 615-855 limits assumed): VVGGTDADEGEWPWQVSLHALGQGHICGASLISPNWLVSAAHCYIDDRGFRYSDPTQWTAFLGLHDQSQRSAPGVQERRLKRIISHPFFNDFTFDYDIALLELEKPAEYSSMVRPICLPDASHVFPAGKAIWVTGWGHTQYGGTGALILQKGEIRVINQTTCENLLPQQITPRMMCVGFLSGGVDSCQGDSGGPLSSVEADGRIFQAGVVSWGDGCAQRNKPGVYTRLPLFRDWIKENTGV
Method in brief: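 Fluorescence (ex 380/em 460 nm) followed kinetically at room temperature; IC50 from four-parameter fit of mean velocity versus concentration, averaged over three experiments.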

HGFA [2] = biological target: T3, HGFA (Homo sapiens, UniProt Q04756); test: P1 substrate specificity using Ac-Ala-Arg-Leu-P1-ACC individual substrate library, HGFA; conditions: substrate 5 μM; best amino acid set to 100%
T3 sequence (Q04756 408-655 limits assumed): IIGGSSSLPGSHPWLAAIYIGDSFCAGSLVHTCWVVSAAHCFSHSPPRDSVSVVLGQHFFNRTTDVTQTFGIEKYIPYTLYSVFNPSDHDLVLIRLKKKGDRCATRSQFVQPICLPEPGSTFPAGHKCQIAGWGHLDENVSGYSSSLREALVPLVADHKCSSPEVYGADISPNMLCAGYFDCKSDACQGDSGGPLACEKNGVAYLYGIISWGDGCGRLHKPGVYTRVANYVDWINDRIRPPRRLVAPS
T3 sequence (Q04756 373-407 partner limits assumed): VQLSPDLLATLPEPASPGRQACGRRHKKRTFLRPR
Procedure: HFGA enzyme was diluted in the assay buffer (0.15 M NaCl, 0.025 M Tris, 0.005 M CaCl2, pH=8.0) to the final concentration of 10-20 nM (depending of sublibrary) and incubated at 25° C. for 30 minutes before added to a substrate.
(§1) The protocol for both enzymes activation and incubation are as the same as in HyCoSuL screening. The P1 individual substrate library was used at the final concentration of 5 μM. The total time of the assay was 30 min, however only linear portions of the progress curve (5-15 minutes) were used for velocity (RFU/s) calculations. Each screening for hepsin either HGFA was repeated 3-times and the average value for each measurement was used to create the substrate specificity matrix.

HGFA [3] = biological target: T3, HGFA; test: P4-P2 substrate specificity using HyCoSuL, HGFA; design: P3 Position % Activity HGFA / P2 Position % Activity HGFA: concentration or dose not given beside the values; P4 Position % Activity HGFA: tested at 100 µM; conditions: HyCoSuL substrate library; for P2 Position % Activity HGFA: amino acid fixed at P2 position; for P3 Position % Activity HGFA: amino acid fixed at P3 position; for P4 Position % Activity HGFA: amino acid fixed at P4 position
Method in brief: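 HGFA at 10-20 nM, preincubated 30 min at 25 °C in Tris buffer pH 8.0 with NaCl and CaCl2, screened against P4, P3 and P2 HyCoSuL sublibraries at 100 μM. Velocities taken from linear 5-15 min fluorescence; means of ≥3 runs normalized to best amino acid (100%).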

hepsin [4] = biological target: T4, hepsin (Homo sapiens, UniProt P05981); test: P1 substrate specificity using Ac-Ala-Arg-Leu-P1-ACC individual substrate library, hepsin; conditions: substrate 5 μM; best amino acid set to 100%
T4 construct: purchased R&D Systems 4776-SE-010
T4 sequence (P05981 163-417 limits assumed): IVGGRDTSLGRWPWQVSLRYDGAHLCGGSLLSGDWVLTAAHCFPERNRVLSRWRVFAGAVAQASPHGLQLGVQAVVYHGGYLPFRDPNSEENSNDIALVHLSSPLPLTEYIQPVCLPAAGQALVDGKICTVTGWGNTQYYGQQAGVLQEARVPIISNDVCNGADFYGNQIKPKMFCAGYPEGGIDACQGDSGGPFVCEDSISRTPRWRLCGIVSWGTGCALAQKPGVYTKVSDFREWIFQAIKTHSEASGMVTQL
T4 sequence (P05981 45-162 partner limits assumed): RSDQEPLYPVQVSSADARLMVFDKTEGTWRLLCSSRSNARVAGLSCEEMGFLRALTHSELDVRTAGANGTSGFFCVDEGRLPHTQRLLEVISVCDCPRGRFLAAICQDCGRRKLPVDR
Procedure: Recombinant human hepsin (10 μg in 20 uL, 4776-SE-010, R&D Systems) was added to the 100 μL of activation buffer (0.1 M Tris, 0.15 M NaCl, 0.01 M CaCl2, 0.05% TRITON-X, pH=8.0) and incubated at 37° C. for 24 hours (hepsin concentration in activation buffer 2 μM). Once activated hepsin was diluted in assay buffer (0.05 M Tris, pH=9.0) to the final concentration of 4 nM and incubated at 37° C. for 15 minutes before added to a substrate.
as §1

hepsin [5] = biological target: T4, hepsin; test: P4-P2 substrate specificity using HyCoSuL, hepsin; design: concentration or dose not given beside the values; conditions: HyCoSuL substrate library; for P2 Position % Activity Hepsin: amino acid fixed at P2 position; for P3 Position % Activity Hepsin: amino acid fixed at P3 position; for P4 Position % Activity Hepsin: amino acid fixed at P4 position
[6] = Table 6.2, headed Fluorogenic Assay, read-out: Thrombin Ki
[7] = Table 6.2, headed Fluorogenic Assay, read-out: Factor Xa Ki

Compound | Ki (thrombin) | Ki (Trypsin) | Ki (Factor Xa) | Ki (HGFA [1]) | fold increase in HGFA potency (HGFA [1]; versus parent compound) | Ki (thrombin; [6]) | Ki (Factor Xa; [7]) | Ki (matriptase) | % activity, P1 position, HGFA (HGFA [2]) | P2 Position % Activity HGFA (HGFA [3]) | P3 Position % Activity HGFA (HGFA [3]) | P4 Position % Activity HGFA (HGFA [3]) | % activity, P1 position, Hepsin (hepsin [4]) | P2 Position % Activity Hepsin (hepsin [5]) | P3 Position % Activity Hepsin (hepsin [5]) | P4 Position % Activity Hepsin (hepsin [5])
CC(=O)N[C@@H](CCCCN)C(=O)N[C@@H](CCC(N)=O)C(=O)N[C@@H](CC(C)C)C(=O)N[C@@H](CCCNC(=N)N)C(=O)c1nc2ccccc2s1 [Compound 7006, Ac-KQLR(SEQ ID NO: 1)-Kbt] | > 20000 nM | 0.24 nM | 129 nM | 30 nM | 2 fold |  |  |  |  |  |  |  |  |  |  | 
CC(=O)N[C@@H](CO)C(=O)N[C@@H](CCCCN)C(=O)N[C@@H](CC(C)C)C(=O)N[C@@H](CCCNC(=N)N)C(=O)c1nc2ccccc2s1 [Compound 7053, Ac-SKLR(SEQ ID NO: 10)-Kbt] | > 20000 nM | 0.16 nM | 1900 nM | 33 nM |  |  |  |  |  |  |  |  |  |  |  | 
CC(=O)N[C@@H](Cc1ccccc1)C(=O)N[C@@H](CC(C)C)C(=O)N[C@@H](Cc1ccccc1)C(=O)N[C@@H](CCCNC(=N)N)C(=O)c1nc2ccccc2s1 [Compound 7063, Ac-FLFR(SEQ ID NO: 19)-Kbt] |  | 0.27 nM |  | 114 nM |  | > 20000 nM | 13.1 nM | 3.6 nM |  |  |  |  |  |  |  | 
CC(C)C[C@H](NC(=O)[C@H](CCCNC(=N)N)NC(=O)[C@@H](N)Cc1c[nH]c2ccccc12)C(=O)N[C@@H](CCCNC(=N)N)C(=O)c1nc2ccccc2s1 [Compound 7117, H-WRLR(SEQ ID NO: 9)-Kbt] |  | 0.96 nM |  | 8.75 nM |  | 4890 nM | 2.4 nM |  |  |  |  |  |  |  |  | 
COC(=O)c1ccc(CNC(=O)c2ccc3nc(C(=O)[C@H](CCCNC(=N)N)NC(=O)[C@H](CC(C)C)NC(=O)[C@H](CCCNC(=N)N)NC(=O)[C@H](CCCCN)NC(C)=O)sc3c2)cc1 [Compound 7158, Ac-KRLR(SEQ ID NO: 8)-kbt-Benzyl-4-COOMe] |  | 0.05 nM |  | 5.85 nM |  | 20.9 nM | 9 nM |  |  |  |  |  |  |  |  | 
COC(=O)c1cccc(CNC(=O)c2ccc3nc(C(=O)[C@H](CCCNC(=N)N)NC(=O)[C@H](CC(C)C)NC(=O)[C@H](CCCNC(=N)N)NC(=O)[C@H](CCCCN)NC(C)=O)sc3c2)c1 [Compound 7159, Ac-KRLR(SEQ ID NO: 8)-kbt-Benzyl-3-COOMe] |  | 0.04 nM |  | 7.76 nM |  | 85.4 nM | 14 nM |  |  |  |  |  |  |  |  | 
N=C(N)NCCC[C@H](NC(=O)[C@H](Cc1ccccc1)NC(=O)OCC1c2ccccc2-c2ccccc21)C(=O)c1nc2ccccc2s1 [Compound 7187-14, Fmoc-FR-kbt] |  | 14.3 nM |  | 964 nM |  | > 2000 nM | 28.4 nM |  |  |  |  |  |  |  |  | 
L-Hyp |  |  |  |  |  |  |  |  | 0.00% | 3.95% | 2.18% | 10.66% | 0.00% | 38.67% | 4.70% | 37.81%
L-Met(O) |  |  |  |  |  |  |  |  | 0.00% | 1.68% | 16.63% | 6.64% | 0.00% | 11.40% | 68.16% | 22.86%
L-Nle |  |  |  |  |  |  |  |  | 0.00% | 45.52% | 19.15% | 11.76% | 0.07% | 62.04% | 24.09% | 40.93%
L-Nva |  |  |  |  |  |  |  |  | 0.00% | 39.80% | 17.60% | 11.78% | 0.14% | 58.40% | 25.85% | 41.99%
L-Orn |  |  |  |  |  |  |  |  | 0.00% | 0.00% | 54.04% | 20.23% | 0.00% | 78.48% | 79.70% | 84.52%
L-hArg |  |  |  |  |  |  |  |  | 0.00% | 5.83% | 100.00% | 22.07% | 0.24% | 57.96% | 47.00% | 56.24%
